# Measurements as given in PubChem BioAssay AID2060509 (Molecular Pharmacology Branch, DTP, NCI, 2025).
# System: 485176-168-R4-J1-PDC spheroids with HUVEC/MSC, viability
# Assay: Anticancer human tumor 485176-168-R4-J1-PDC patient-derived pancreatic adenocarcinoma cell line growth inhibition [GQUAD]
# Details: for IC50: curve of first compound; for viability, T/C: stronger effect = lower value
# Summary of the method: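 Viability of tumor cells grown as complex spheroids with endothelial and stromal cells, exposed to drug combinations. Top concentration at or near clinical Cmax (else 10 microM), diluted in half-log increments.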
# [1] = second compound 0.0316 µM, first compound 0.0316 µM
# [2] = second compound 0.0316 µM, first compound 0.1 µM
# [3] = second compound 0.0316 µM, first compound 0.316 µM
# [4] = second compound 0.0316 µM, first compound 1 µM
# [5] = second compound 0.0316 µM, first compound 3.16 µM
# [6] = second compound 0.0316 µM, first compound 10 µM
# [7] = second compound 0.1 µM, first compound 0.0316 µM
# [8] = second compound 0.1 µM, first compound 0.1 µM
# [9] = second compound 0.1 µM, first compound 0.316 µM
# [10] = second compound 0.1 µM, first compound 1 µM
# [11] = second compound 0.1 µM, first compound 3.16 µM
# [12] = second compound 0.1 µM, first compound 10 µM
# [13] = second compound 0.316 µM, first compound 0.0316 µM
# [14] = second compound 0.316 µM, first compound 0.1 µM
# [15] = second compound 0.316 µM, first compound 0.316 µM
# [16] = second compound 0.316 µM, first compound 1 µM
# [17] = second compound 0.316 µM, first compound 3.16 µM
# [18] = second compound 0.316 µM, first compound 10 µM
# [19] = second compound 1 µM, first compound 0.0316 µM
# [20] = second compound 1 µM, first compound 0.1 µM
# [21] = second compound 1 µM, first compound 0.316 µM
# [22] = second compound 1 µM, first compound 1 µM
# [23] = second compound 1 µM, first compound 3.16 µM
# [24] = second compound 1 µM, first compound 10 µM
# [25] = second compound 3.16 µM, first compound 0.0316 µM
# [26] = second compound 3.16 µM, first compound 0.1 µM
# [27] = second compound 3.16 µM, first compound 0.316 µM
# [28] = second compound 3.16 µM, first compound 1 µM
# [29] = second compound 3.16 µM, first compound 3.16 µM
# [30] = second compound 3.16 µM, first compound 10 µM
# [31] = second compound 10 µM, first compound 0.0316 µM
# [32] = second compound 10 µM, first compound 0.1 µM
# [33] = second compound 10 µM, first compound 0.316 µM
# [34] = second compound 10 µM, first compound 1 µM
# [35] = second compound 10 µM, first compound 3.16 µM
# [36] = second compound 10 µM, first compound 10 µM
# 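Further: spheroids exposed to compounds for seven days before readout.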
# 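Wherever viability, T/C is given: percent viability relative to DMSO vehicle control wells as 100%.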
compound,measurement,setting,value
COc1cc(C2c3cc4c(cc3C(OC3OC5COC(C)OC5C(O)C3O)C3COC(=O)C23)OCO4)cc(OC)c1O (centres undefined) + Cc1[nH]c2ccc(F)cc2c1-c1nc2c3cccnc3c3ncccc3c2[nH]1,IC50,second compound 0.0316 µM,317 nM
same,IC50,second compound 0.1 µM,266 nM
same,IC50,second compound 0.316 µM,650 nM
same,IC50,second compound 1 µM,403 nM
same,IC50,second compound 3.16 µM,344 nM
same,IC50,second compound 10 µM,344 nM
same,"viability, T/C",[1],89.3%
same,"viability, T/C",[2],63%
same,"viability, T/C",[3],43.9%
same,"viability, T/C",[4],43%
same,"viability, T/C",[5],29.5%
same,"viability, T/C",[6],12.7%
same,"viability, T/C",[7],92.3%
same,"viability, T/C",[8],68.7%
same,"viability, T/C",[9],37.5%
same,"viability, T/C",[10],42.1%
same,"viability, T/C",[11],24%
same,"viability, T/C",[12],12.5%
same,"viability, T/C",[13],86.1%
same,"viability, T/C",[14],97.7%
same,"viability, T/C",[15],52.9%
same,"viability, T/C",[16],44.4%
same,"viability, T/C",[17],29.4%
same,"viability, T/C",[18],13%
same,"viability, T/C",[19],89.6%
same,"viability, T/C",[20],67.7%
same,"viability, T/C",[21],47.4%
same,"viability, T/C",[22],44.5%
same,"viability, T/C",[23],24.9%
same,"viability, T/C",[24],15.1%
same,"viability, T/C",[25],77.3%
same,"viability, T/C",[26],65.7%
same,"viability, T/C",[27],43.6%
same,"viability, T/C",[28],42.8%
same,"viability, T/C",[29],28.7%
same,"viability, T/C",[30],13%
same,"viability, T/C",[31],96.2%
same,"viability, T/C",[32],69.9%
same,"viability, T/C",[33],44%
same,"viability, T/C",[34],44.8%
same,"viability, T/C",[35],24.9%
same,"viability, T/C",[36],13.2%
C#Cc1c(F)ccc2cc(O)cc(-c3ncc4c(N5CC6CCC(C5)N6)nc(OCC56CCCN5CC(F)C6)nc4c3F)c12 (centres undefined) + Cc1[nH]c2ccc(F)cc2c1-c1nc2c3cccnc3c3ncccc3c2[nH]1,IC50,second compound 0.0316 µM,> 10000 nM
same,IC50,second compound 0.1 µM,> 10000 nM
same,IC50,second compound 0.316 µM,> 10000 nM
same,IC50,second compound 1 µM,> 10000 nM
same,IC50,second compound 3.16 µM,> 10000 nM
same,IC50,second compound 10 µM,> 10000 nM
same,"viability, T/C",[1],92.5%
same,"viability, T/C",[2],95.7%
same,"viability, T/C",[3],91.5%
same,"viability, T/C",[4],84.1%
same,"viability, T/C",[5],90.3%
same,"viability, T/C",[6],89.7%
same,"viability, T/C",[7],93%
same,"viability, T/C",[8],102%
same,"viability, T/C",[9],101%
same,"viability, T/C",[10],109%
same,"viability, T/C",[11],103%
same,"viability, T/C",[12],93.6%
same,"viability, T/C",[13],91%
same,"viability, T/C",[14],101%
same,"viability, T/C",[15],93.4%
same,"viability, T/C",[16],107%
same,"viability, T/C",[17],99.1%
same,"viability, T/C",[18],87%
same,"viability, T/C",[19],105%
same,"viability, T/C",[20],89.2%
same,"viability, T/C",[21],92.4%
same,"viability, T/C",[22],81.5%
same,"viability, T/C",[23],109%
same,"viability, T/C",[24],93%
same,"viability, T/C",[25],98.9%
same,"viability, T/C",[26],80.9%
same,"viability, T/C",[27],105%
same,"viability, T/C",[28],97.6%
same,"viability, T/C",[29],90.4%
same,"viability, T/C",[30],95.3%
same,"viability, T/C",[31],96.6%
same,"viability, T/C",[32],92%
same,"viability, T/C",[33],82.7%
same,"viability, T/C",[34],87.8%
same,"viability, T/C",[35],85.1%
same,"viability, T/C",[36],86.5%
